Measurements published in ChEMBL document CHEMBL1909046, “DrugMatrix in vitro pharmacology data”.

Key:
[1] = DRUGMATRIX: Calcium Channel Type L, Dihydropyridine radioligand binding (ligand: [3H] Nitrendipine); format: cell membranes, Rattus norvegicus, Wistar, Cerebral cortex, Membrane; settings: Not Active = under 50% inhibition at 10 µM
[2] = target: T1, C-X-C chemokine receptor type 2 (Homo sapiens, UniProt P25025); format: cell membranes, Membrane; settings: cho-k1; further: in other assays of this panel Not Active means under 50% inhibition at 10 µM
T1 sequence (P25025 whole entry): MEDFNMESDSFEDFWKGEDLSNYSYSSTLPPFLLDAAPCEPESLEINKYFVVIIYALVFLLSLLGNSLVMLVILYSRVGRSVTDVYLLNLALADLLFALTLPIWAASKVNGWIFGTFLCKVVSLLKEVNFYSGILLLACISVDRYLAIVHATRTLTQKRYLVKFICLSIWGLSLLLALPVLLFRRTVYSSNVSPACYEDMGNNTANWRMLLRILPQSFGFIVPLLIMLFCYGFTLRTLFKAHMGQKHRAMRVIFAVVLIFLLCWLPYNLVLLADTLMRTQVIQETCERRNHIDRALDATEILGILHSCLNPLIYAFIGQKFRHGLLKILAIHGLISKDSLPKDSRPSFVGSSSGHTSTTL

[3] = DRUGMATRIX: Interleukin IL-1 radioligand binding (ligand: [125I] interleukin 1beta); format: cell membranes, Membrane; settings: nih3t3; Not Active = under 50% inhibition at 10 µM
[4] = DRUGMATRIX: Leukotriene, BLT (LTB4) radioligand binding (ligand: [3H]LTB4); format: cell membranes, Membrane; settings: u-937; Not Active = under 50% inhibition at 10 µM
[5] = target: Mu-type opioid receptor (Homo sapiens, UniProt P35372); experiment: DRUGMATRIX: Opiate mu (OP3, MOP) radioligand binding (ligand: [3H] Diprenorphine); format: cell membranes, CHO-K1, Membrane; settings: cho-k1; Not Active = under 50% inhibition at 10 µM
[6] = target: T2, Interstitial collagenase (Homo sapiens, UniProt P03956); experiment: biochemical; format: tissue-based, Rheumatoid synovial fibroblasts;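 further: MMP-1 enzyme inhibition assay using a peptide substrate; in other assays of this panel Not Active means under 50% inhibition at 10 µM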
T2 sequence (P03956 whole entry): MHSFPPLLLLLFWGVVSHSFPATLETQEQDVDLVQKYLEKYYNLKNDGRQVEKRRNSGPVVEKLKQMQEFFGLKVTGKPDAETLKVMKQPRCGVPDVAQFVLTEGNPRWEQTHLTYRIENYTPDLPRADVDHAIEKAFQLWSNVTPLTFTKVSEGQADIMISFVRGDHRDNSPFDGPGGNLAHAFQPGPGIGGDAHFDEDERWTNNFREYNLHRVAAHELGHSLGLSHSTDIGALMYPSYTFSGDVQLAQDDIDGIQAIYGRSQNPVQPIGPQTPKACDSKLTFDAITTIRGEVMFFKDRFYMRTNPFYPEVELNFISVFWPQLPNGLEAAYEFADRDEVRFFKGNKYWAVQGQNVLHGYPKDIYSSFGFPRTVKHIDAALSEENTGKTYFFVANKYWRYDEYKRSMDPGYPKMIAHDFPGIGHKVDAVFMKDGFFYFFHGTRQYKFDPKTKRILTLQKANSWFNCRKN

[7] = target: T3, Adenosine receptor A1 (Homo sapiens, UniProt P30542); format: cell membranes, CHO, Membrane; settings: cho;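 further: radioligand binding assay at the adenosine A1 receptor, with DPCPX serving as the labelled ligand; in other assays of this panel Not Active means under 50% inhibition at 10 µM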
T3 sequence (P30542 whole entry): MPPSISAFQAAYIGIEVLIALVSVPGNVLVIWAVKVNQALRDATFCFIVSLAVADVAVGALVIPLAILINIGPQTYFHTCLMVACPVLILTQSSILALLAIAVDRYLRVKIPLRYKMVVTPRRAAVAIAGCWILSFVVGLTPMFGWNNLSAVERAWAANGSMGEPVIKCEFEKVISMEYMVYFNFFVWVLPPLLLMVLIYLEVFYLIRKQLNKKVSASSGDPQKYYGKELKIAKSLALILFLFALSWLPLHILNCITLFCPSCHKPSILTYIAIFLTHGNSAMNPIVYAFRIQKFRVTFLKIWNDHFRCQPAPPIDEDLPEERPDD

[8] = target: Cytochrome P450 2D6 (Homo sapiens, UniProt P10635); settings: bti-tn-5b1-4; further: in other assays of this panel Not Active means under 50% inhibition at 10 µM
Sequence of Cytochrome P450 2D6 (P10635 whole entry): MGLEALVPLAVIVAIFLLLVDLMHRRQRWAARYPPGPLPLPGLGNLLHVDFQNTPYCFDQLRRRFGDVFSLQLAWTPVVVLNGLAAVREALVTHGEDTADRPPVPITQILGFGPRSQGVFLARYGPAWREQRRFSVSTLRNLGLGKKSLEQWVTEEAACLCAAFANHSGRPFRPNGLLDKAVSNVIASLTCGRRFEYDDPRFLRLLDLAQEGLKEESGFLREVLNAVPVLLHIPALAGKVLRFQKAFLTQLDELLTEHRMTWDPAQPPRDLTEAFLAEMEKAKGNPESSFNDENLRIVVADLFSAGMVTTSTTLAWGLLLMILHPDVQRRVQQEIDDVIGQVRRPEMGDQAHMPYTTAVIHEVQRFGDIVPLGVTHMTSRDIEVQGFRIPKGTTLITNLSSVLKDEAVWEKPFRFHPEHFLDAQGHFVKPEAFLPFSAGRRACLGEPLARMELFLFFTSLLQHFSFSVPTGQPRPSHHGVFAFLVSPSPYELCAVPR

Sequence of Mu-type opioid receptor (P35372 whole entry): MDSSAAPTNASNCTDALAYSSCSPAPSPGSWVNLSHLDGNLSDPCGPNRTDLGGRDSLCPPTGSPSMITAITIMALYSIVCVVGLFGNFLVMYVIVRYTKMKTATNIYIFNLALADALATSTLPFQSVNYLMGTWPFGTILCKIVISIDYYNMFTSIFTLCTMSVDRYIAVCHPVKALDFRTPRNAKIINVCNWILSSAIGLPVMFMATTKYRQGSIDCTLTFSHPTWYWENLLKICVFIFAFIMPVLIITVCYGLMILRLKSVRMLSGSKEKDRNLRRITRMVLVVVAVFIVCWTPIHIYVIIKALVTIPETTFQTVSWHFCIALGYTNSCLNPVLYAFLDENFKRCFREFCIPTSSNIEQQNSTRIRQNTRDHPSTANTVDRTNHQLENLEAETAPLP

CCN(CC)CC(=O)Nc1c(C)cccc1C [LIDOCAINE]
Not Active: IC50 [1] | Ki [1] | IC50 [2] | IC50 [3] | Ki [3] | IC50 [4] | Ki [4] | IC50 [5] | IC50 [6] | IC50 [7]

CO[C@@H]1[C@@H](OC)[C@H](C)[C@@](O)(CC(=O)O)O[C@H]1[C@H](C)[C@H]1O[C@@]2(CC[C@@](C)([C@H]3CC[C@@](C)([C@@H]4O[C@@H]([C@H]5O[C@](C)(O)[C@H](C)C[C@@H]5C)C[C@@H]4O[C@@H]4C[C@H](OC)[C@@H](OC)[C@H](C)O4)O3)O2)C[C@H](O)[C@H]1C [MADURAMICIN ACID]
Not Active: IC50 [1] | Ki [1] | IC50 [2] | IC50 [3] | Ki [3] | IC50 [4] | Ki [4] | IC50 [5] | IC50 [6] | IC50 [7]

C[C@H]1C[C@@H]2[C@H]([C@@H](O)C[C@@]3(C)[C@H]2CC[C@]3(O)C(=O)CO)[C@@]2(C)C=CC(=O)C=C12 [METHYLPREDNISOLONE]
Not Active: IC50 [1] | Ki [1] | IC50 [2] | IC50 [3] | Ki [3] | IC50 [4] | Ki [4] | IC50 [5] | IC50 [6] | IC50 [7]

CC[C@@H](C(=O)[C@@H](C)[C@@H](O)[C@H](C)[C@@H]1O[C@@H]([C@@H](CC)C(=O)O)CC[C@@H]1C)[C@H]1O[C@]2(C=C[C@@H](O)[C@]3(CC[C@@](C)([C@H]4CC[C@](O)(CC)[C@H](C)O4)O3)O2)[C@H](C)C[C@@H]1C [SALINOMYCIN]
Not Active: IC50 [1] | Ki [1] | IC50 [2] | IC50 [3] | Ki [3] | IC50 [4] | Ki [4] | IC50 [6] | IC50 [7] | IC50 [8] | Ki [8]

CN[C@H]1CC[C@@H](c2ccc(Cl)c(Cl)c2)c2ccccc21 [SERTRALINE]
Not Active: IC50 [2] | IC50 [5] | IC50 [6] | IC50 [7] | IC50 [8] | Ki [8]

CN(C/C=C/C#CC(C)(C)C)Cc1cccc2ccccc12 [TERBINAFINE]
Not Active: IC50 [1] | Ki [1] | IC50 [2] | IC50 [3] | Ki [3] | IC50 [4] | Ki [4] | IC50 [5] | IC50 [6] | IC50 [7]

CCCCNc1ccc(C(=O)OCCN(C)C)cc1 [TETRACAINE]
Not Active: IC50 [1] | Ki [1] | IC50 [2] | IC50 [3] | Ki [3] | IC50 [4] | Ki [4] | IC50 [5] | IC50 [6] | IC50 [7]

Cn1c(=O)c2nc[nH]c2n(C)c1=O.O [THEOPHYLLINE]
Not Active: IC50 [1] | Ki [1] | IC50 [2] | IC50 [3] | Ki [3] | IC50 [4] | Ki [4] | IC50 [5] | IC50 [6] | IC50 [8] | Ki [8]

Clc1ccccc1CN1CCc2sccc2C1 [TICLOPIDINE]
Not Active: IC50 [1] | Ki [1] | IC50 [2] | IC50 [3] | Ki [3] | IC50 [4] | Ki [4] | IC50 [5] | IC50 [6] | IC50 [7]

O=C(Nc1ccc(Br)cc1)c1cc(Br)cc(Br)c1O [TRIBROMSALAN]
Not Active: IC50 [1] | Ki [1] | IC50 [2] | IC50 [3] | Ki [3] | IC50 [4] | Ki [4] | IC50 [6] | IC50 [7] | IC50 [8] | Ki [8]

MANGANESE CHLORIDE ANHYDROUS
Not Active: IC50 [1] | Ki [1] | IC50 [2] | Ki [2] | IC50 [3] | Ki [3] | IC50 [4] | Ki [4] | IC50 [6] | Ki [6] | IC50 [7] | Ki [7] | IC50 [8] | Ki [8]

SODIUM ORTHOVANAD
Not Active: IC50 [1] | Ki [1] | IC50 [2] | Ki [2] | IC50 [3] | Ki [3] | IC50 [4] | Ki [4] | IC50 [6] | Ki [6] | IC50 [7] | Ki [7] | IC50 [8] | Ki [8]
